Test results published in patent US8754032B2, “Concomitant pharmaceutical agents and use thereof” (Mitsubishi Tanabe Pharma Corporation, priority 2005, dated 2014).
Read-outs that look alike come from different tables or passages of the source.

Columns and labels:
Zucker Fatty (ZF) rats = assay: Oral carbohydrate loading test of Zucker Fatty rats: compound 3, voglibose and combination (plasma glucose and insulin); format: in vivo, rat
From the text: Four groups each containing 5 rats were formed. […] [table]

Cc1cc(N2CCN([C@@H]3CN[C@H](C(=O)N4CCSC4)C3)CC2)n(-c2ccccc2)n1 [compound 3, 3-{(2S,4S)-4-[4-(3-methyl-1-phenyl-1H-pyrazol-5-yl)piperazin-1-yl]pyrrolidin-2-ylcarbonyl}thiazolidine]
suppression of increase in plasma glucose after oral carbohydrate loading, as compared to the vehicle group (Zucker Fatty (ZF) rats; rat, in vivo): 33%
increase of plasma insulin concentration as compared to the vehicle group (Zucker Fatty (ZF) rats; rat, in vivo, po, 0.1 mg/kg): about 3 fold
suppression of increase in plasma glucose after oral carbohydrate loading, as compared to the vehicle group (ZF rats; rat, in vivo): 33%

OCC(CO)N[C@H]1C[C@](O)(CO)[C@@H](O)[C@H](O)[C@H]1O [voglibose, reference compound]
suppression of increase in plasma glucose after oral carbohydrate loading, as compared to the vehicle group (Zucker Fatty (ZF) rats; male ZF rats, overnight fasted, compound 3 0.1 mg/kg and/or voglibose 0.1 mg/kg given 15 min before mixed carbohydrates 3.5 g/kg orally, area value over 60 min): 34%

CN(C)C(=N)N=C(N)N [metformin, reference compound]
suppression of increase in plasma glucose after oral carbohydrate loading, as compared to the vehicle group (ZF rats; male ZF rats, overnight fasted, compound 3 0.3 mg/kg and/or metformin 50 mg/kg given 15 min before mixed carbohydrates 3.5 g/kg orally, area value over 120 min): 13%
